# Experimental data: patent publication US7459450B2, “Neuropeptide receptor modulators” (Schering Corporation, priority 2004, dated 2008)
# Target: T1, Human NPY Y1 receptors (Homo sapiens, UniProt P25929)
# T1 construct: expressed in transfected cells; host or cells: CHO cells (membrane protein)
# T1 sequence (P25929 1-384): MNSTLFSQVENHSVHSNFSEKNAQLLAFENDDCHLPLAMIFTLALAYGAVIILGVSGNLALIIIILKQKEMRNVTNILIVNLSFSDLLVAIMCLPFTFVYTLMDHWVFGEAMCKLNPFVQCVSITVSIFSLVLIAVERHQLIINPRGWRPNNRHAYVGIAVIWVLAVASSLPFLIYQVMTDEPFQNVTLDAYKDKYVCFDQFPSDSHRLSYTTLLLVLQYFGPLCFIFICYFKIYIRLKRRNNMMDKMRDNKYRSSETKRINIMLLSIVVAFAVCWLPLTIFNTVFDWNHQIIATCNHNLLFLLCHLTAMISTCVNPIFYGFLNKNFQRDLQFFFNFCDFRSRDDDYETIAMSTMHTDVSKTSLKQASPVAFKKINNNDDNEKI
# Test: NPY Receptor Binding Assay
# Conditions: not given
# Method: NPY Receptor Binding Assay
# Human NPY Y1 receptors were expressed in CHO cells. Binding assays were performed in 50 mM HEPES, pH 7.2, 2.5 mM CaCl2, 1 mM MgCl2 and 0.1% BSA containing 5-10 μg of membrane protein and 0.1 nM […] in a total volume of 200 μl. Non-specific binding was determined in the presence of 1 μM NPY. The reaction mixtures were incubated for 90 minutes at room temperature then filtered through Millipore MAFC glass fiber filter plates which had been pre-soaked in 0.5% polyethleneimine. The filters were washed with phosphate-buffered saline, and radioactivity was measured in a Packard TopCount scintillation counter.
row,Structure (SMILES),Ki [µM]
1,O=C1CN/C(=N/c2ccc(CCNc3nc4ccccc4s3)cc2)S1 [Example 377],> 10
2,COc1cccc2sc(NCCc3ccc(/N=C4/N[C@@H](Cc5ccccc5)C(=O)S4)cc3)nc12 [Example 401],> 10
3,C[C@@H]1N/C(=N/c2ccc(CCNc3nc4ccc(F)cc4s3)cc2)SC1=O [Example 403],> 10
4,O=C1S/C(=N\c2ccc(CCNc3nc4ccccc4s3)cc2)N[C@H]1Cc1ccccc1 [Example 394],> 10
5,COc1ccc2nc(NCCc3ccc(/N=C4/N[C@@H](C)C(=O)S4)cc3)sc2c1 [Example 349],> 10
6,C[C@@H]1N/C(=N/c2ccc(CCNc3nc4ccc([N+](=O)[O-])cc4s3)cc2)SC1=O [Example 343],> 10
7,O=C1S/C(=N/c2cccc(CCNc3nc4ccccc4s3)c2)N[C@H]1Cc1ccccc1 [Example 406],> 10
8,CC(C)[C@@H]1N/C(=N\c2cccc(CCNc3nc4ccccc4s3)c2)SC1=O [Example 407],> 10
9,CC(C)C[C@@H]1N/C(=N/c2ccc(CCNc3nc4ccc(S(C)(=O)=O)cc4s3)cc2)SC1=O [Example 389],> 10

# Results, then the compound that gave them:
row,Ki [µM],Structure (SMILES)
1,> 10,CSCC[C@@H]1N/C(=N/c2ccc(CCNc3nc4ccccc4s3)cc2)SC1=O [Example 395]
2,> 10,O=C1S/C(=N\c2ccc(CCNc3nc4cc(Cl)c(Cl)cc4s3)cc2)N2CCC[C@@H]12 [Example 390]
3,1 to 10,CSCC[C@@H]1N/C(=N/c2ccc(CCNc3nc4ccc(C)cc4s3)cc2)SC1=O [Example 357]
4,> 10,C[C@@H]1N/C(=N/c2ccc(CCNc3nc4ccc(S(C)(=O)=O)cc4s3)cc2)SC1=O [Example 354]
5,> 10,CC(C)[C@@H]1N/C(=N/c2ccc(CCNc3nc4ccc([N+](=O)[O-])cc4s3)cc2)SC1=O [Example 356]
6,> 10,CC(C)[C@@H]1N/C(=N/c2ccc(CCNc3nc4cc(Cl)c(Cl)cc4s3)cc2)SC1=O [Example 363]
7,> 10,CC(C)C[C@@H]1N/C(=N/c2ccc(CCNc3nc4ccc([N+](=O)[O-])cc4s3)cc2)SC1=O [Example 340]
8,> 10,O=C1S/C(=N/c2ccccc2CCNc2nc3ccccc3s2)N[C@H]1Cc1ccccc1 [Example 410]
9,> 10,Cc1ccc2nc(NCCc3ccc(/N=C4\SC(=O)[C@@H]5CCCN45)cc3)sc2c1 [Example 379]
10,> 10,COc1ccc2nc(NCCc3ccc(/N=C4\SC(=O)[C@@H]5CCCN45)cc3)sc2c1 [Example 347]
11,> 10,C[C@@H]1N/C(=N/c2ccc(CCNc3nc4ccccc4s3)cc2)SC1=O [Example 400]

# Same assay, conditions: Procedure A compounds, rated A/B/C
row,Ki [µM],Structure (SMILES)
1,1 to 10,O=[N+]([O-])c1ccc2nc(NCCc3ccc(NC4=NCCS4)cc3)sc2c1 [Example 18]
2,1 to 10,CS(=O)(=O)c1ccc2nc(NCCc3ccc(NC4=NCCS4)cc3)sc2c1 [Example 15]
3,> 10,c1ccc(NC2=NCCS2)c(CCNc2nc3ccccc3s2)c1 [Example 24]
4,1 to 10,COc1cccc2sc(NCCc3ccc(NC4=NCCS4)cc3)nc12 [Example 22]

# Same assay, conditions: Procedure B compounds, rated A/B/C
row,Ki [µM],Structure (SMILES)
1,> 10,CCC1CN(C(=O)c2ccccc2)C(Nc2ccc(CCNc3nc4ccccc4s3)cc2)=N1 (centres unmarked) [Example 33]
2,> 10,O=C(c1ccccc1)N1CC2CCCN2/C1=N\c1ccc(CCNc2nc3ccccc3s2)cc1 (centres unmarked) [Example 35]

# Same assay, conditions: Procedure C compounds, rated A/B/C
row,Ki [µM],Structure (SMILES)
1,> 10,CCOC(=O)N1C(=O)CN=C1Nc1ccc(CCNc2nc3ccccc3s2)cc1 [Example 36]
2,> 10,O=C(c1ccccc1)N1C(=O)[C@H](CC2CCCCC2)N=C1Nc1ccc(CCNc2nc3ccccc3s2)cc1 [Example 50]
3,> 10,CC(C)C[C@@H]1N=C(Nc2ccc(CCNc3nc4ccccc4s3)cc2)N(C(=O)c2ccccc2)C1=O [Example 53]

# Same assay, conditions: Procedure E compounds, rated A/B/C
row,Structure (SMILES),Ki [µM]
1,CC[C@@H]1CS/C(=N\c2ccc(CCNc3nc4ccc(OC)cc4s3)cc2)N1 [Example 219],1 to 10
2,COc1ccc2nc(NCCc3ccc(/N=C4/NC(C)(C)CS4)cc3)sc2c1 [Example 221],1 to 10
3,CC1CN/C(=N/c2ccc(CCNc3nc4ccc(S(C)(=O)=O)cc4s3)cc2)S1 (centres unmarked) [Example 189],> 10
4,CC[C@@H]1CS/C(=N\c2ccc(CCNc3nc4ccccc4s3)cc2)N1 [Example 269],< 1
5,Cc1cccc2sc(NCCc3ccc(/N=C4/NCCCS4)cc3)nc12 [Example 209],> 10
6,c1ccc(C2CCS/C(=N/c3ccccc3CCNc3nc4ccccc4s3)N2)cc1 (centres unmarked) [Example 70],> 10
7,O=[N+]([O-])c1ccc2nc(NCCc3ccc(/N=C4/NC(c5ccccc5)CCS4)cc3)sc2c1 (centres unmarked) [Example 67],> 10
8,Cc1ccc2nc(NCCc3ccc(/N=C4/N[C@@H](C)C(c5ccccc5)S4)cc3)sc2c1 (some centres unmarked) [Example 323],> 10
9,CS(=O)(=O)c1ccc2nc(NCCc3ccc(/N=C4/N[C@@H](Cc5c[nH]cn5)CS4)cc3)sc2c1 [Example 116],1 to 10
10,Fc1ccc2nc(NCCc3ccc(/N=C4/NC(c5ccccc5)CCS4)cc3)sc2c1 (centres unmarked) [Example 210],< 1
11,Cc1ccc2nc(NCCc3ccc(/N=C4/N[C@@H](C(C)C)CS4)cc3)sc2c1 [Example 93],1 to 10
12,CC[C@@H]1CS/C(=N\c2ccc(CCNc3nc4ccc(C)cc4s3)cc2)N1 [Example 96],< 1
13,CCCC1CS/C(=N\c2ccc(CCNc3nc4ccc(S(C)(=O)=O)cc4s3)cc2)N1 (centres unmarked) [Example 249],1 to 10

# Further lines, results first:
row,Ki [µM],Structure (SMILES)
1,> 10,CC1CN/C(=N\c2cccc(CCNc3nc4ccccc4s3)c2)S1 (centres unmarked) [Example 187]
2,1 to 10,CS(=O)(=O)c1ccc2nc(NCCc3ccc(/N=C4/NC5(CCCC5)CS4)cc3)sc2c1 [Example 117]
3,1 to 10,O=[N+]([O-])c1ccc2nc(NCCc3ccc(/N=C4/NC5(CCCC5)CS4)cc3)sc2c1 [Example 75]
4,< 1,c1ccc(CCC2CCSC(Nc3ccc(CCNc4nc5ccccc5s4)cc3)=N2)cc1 (centres unmarked) [Example 197]
5,> 10,c1ccc(C2CN/C(=N/c3ccc(CCNc4nc5ccccc5s4)cc3)S2)cc1 (centres unmarked) [Example 192]
6,> 10,CC1CN/C(=N/c2ccc(CCNc3nc4ccc(F)cc4s3)cc2)S1 (centres unmarked) [Example 330]
7,1 to 10,CCCCC1CS/C(=N\c2ccc(CCNc3nc4ccc(S(C)(=O)=O)cc4s3)cc2)N1 (centres unmarked) [Example 111]
8,> 10,c1ccc(/N=C2\NCCCS2)c(CCNc2nc3ccccc3s2)c1 [Example 68]
9,< 1,Clc1ccccc1C1CCSC(Nc2ccc(CCNc3nc4ccccc4s3)cc2)=N1 (centres unmarked) [Example 199]
10,< 1,Clc1cc2nc(NCCc3ccc(N=C4NCCCS4)cc3)sc2cc1Cl [Example 72]
11,> 10,Fc1ccc2nc(NCCc3ccc(/N=C4/NCC(c5ccccc5)S4)cc3)sc2c1 (centres unmarked) [Example 329]
12,< 1,Cc1ccc2nc(NCCc3ccc(/N=C4/NC(C)(C)CS4)cc3)sc2c1 [Example 227]
13,1 to 10,Cc1ccc2nc(NCCc3ccc(/N=C4/N[C@@H](Cc5c[nH]cn5)CS4)cc3)sc2c1 [Example 97]
14,1 to 10,COc1ccc2nc(NCCc3ccc(/N=C4/N[C@H](C)CS4)cc3)sc2c1 [Example 218]
15,< 1,Cc1ccc2nc(NCCc3ccc(/N=C4/NC(c5ccccc5)CCS4)cc3)sc2c1 (centres unmarked) [Example 204]
16,< 1,c1ccc2sc(NCCc3ccc(/N=C4/NC5(CCCC5)CS4)cc3)nc2c1 [Example 271]
17,> 10,C[C@@H]1N/C(=N/c2ccc(CCNc3nc4ccccc4s3)cc2)SC1c1ccccc1 (some centres unmarked) [Example 191]
18,< 1,Clc1ccc2nc(NCCc3ccc(/N=C4/NC(c5ccccc5)CCS4)cc3)sc2c1 (centres unmarked) [Example 212]
19,1 to 10,CC1(C)CS/C(=N\c2ccc(CCNc3nc4ccc(Cl)cc4s3)cc2)N1 [Example 240]
20,< 1,c1ccc([C@@H]2CSC(Nc3ccc(CCNc4nc5ccccc5s4)cc3)=N2)cc1 [Example 196]
21,1 to 10,COc1ccc2nc(NCCc3ccc(/N=C4/NC5(CCCC5)CS4)cc3)sc2c1 [Example 220]

# Same assay, conditions: Procedure G compounds, rated A/B/C
row,Ki [µM],Structure (SMILES)
1,> 10,COc1ccc(-c2csc(Nc3ccc(CCNc4nc5ccccc5s4)cc3)n2)cc1 [Example 436]
2,> 10,c1ccc(-c2nc(Nc3ccc(CCNc4nc5ccccc5s4)cc3)sc2-c2ccccc2)cc1 [Example 421]
3,> 10,CC(C)(C)c1csc(Nc2ccc(CCNc3nc4ccccc4s3)cc2)n1 [Example 433]
4,> 10,COc1ccccc1-c1csc(Nc2ccc(CCNc3nc4ccccc4s3)cc2)n1 [Example 425]
5,> 10,Cc1csc(Nc2ccc(CCNc3nc4ccccc4s3)cc2)n1 [Example 415]

# Same assay, conditions: Procedure H compounds, rated A/B/C
row,Ki [µM],Structure (SMILES)
1,> 10,O=C1CSC(Nc2ccc(CCNc3nc4ccccc4s3)cc2)=N1 [Example 439]
2,> 10,O=C1N=C(Nc2ccc(CCNc3nc4ccccc4s3)cc2)SC1CCO (centres unmarked) [Example 441]

# Same assay, conditions: Table 1, rated A/B/C
row,Ki [µM],Structure (SMILES)
1,< 1,Clc1cccc(C2CCSC(Nc3ccc(CCNc4nc5ccccc5s4)cc3)=N2)c1 (centres unmarked) [Example 4]
2,< 1,c1ccc2sc(NCCc3ccc(NC4=NC(C5CCCCC5)CCS4)cc3)nc2c1 (centres unmarked) [Example 9]
3,< 1,c1ccc(CCC2CCSC(Nc3ccc(CCNc4nc5ccccc5s4)cc3)=N2)cc1 (centres unmarked) [Example 13]
4,< 1,Brc1ccc(C2CCSC(Nc3ccc(CCNc4nc5ccccc5s4)cc3)=N2)cc1 (centres unmarked) [Example 5]
